What was measured:
[1] = test system: gastric lesions induced by compound 48/80; experiment: Gastric lesion test: lesions induced by compound 48/80 (Test 2); format: in vivo, rat (male, Wistar inbred strain); conditions: Rattus norvegicus, po
Protocol: Test 2: Effects in gastric lesion tests
The shock, followed by dead, can be avoided if the rats are pretreated with a classical H 1 antagonist.
Male rats of a Wistar inbred strain, weighing 200-250 g, are starved overnight, water being available ad libitum. The test compounds are administered orally as a solution or as a suspension in aqueous medium. A control rat and a "blank" rat […]. One hour later 5-[4-(diphenylmethyl)-1-piperazinylmethyl]-1-methyl-1H-benzimidazole-2-methanol is administered subcutaneously to all rats at the dose of 2.5 mg/kg. […] Four hours after the intravenous injection of compound 48/80, the rats are decapitated and the stomachs are removed. Subsequently the stomachs are inspected for distension and contents (blood, fluid, food) and thoroughly rinsed. The macroscopic lesions are secured from 0 to +++, 0 corresponding to complete absence of visible lesions and the highest score corresponding to reddish rough patches covering more than half the glandular area.

[2] = test system: effect of serotonin on the caudal artery of the rat; experiment: Antagonistic activity on the effect of serotonin on the caudal artery of the rat (Test 1); conditions: minimal concentration reducing amplitude of serotonin (40 ng/ml) contraction to at least 50% of normal; rat caudal artery strips; 5 min
Protocol: Test 1: Anta gonistic activity on the effect of serotonin on the caudal artery of the rat.
Caudal arteries from fasted male rats (210-235 g) are used in the test. Two helical strips having a length of 5-6 cm and a width of 2 mm are obtained from each artery and mounted vertically in a 100 ml organ bath containing an oxygenated Krebs-Henseleit solution. Submaximal contractions of the arterial strips are produced by adding single doses of serotonin (40 ng/ml) to the organ bath for 2 minutes with each time an interval of 10 minutes. The amplitude of the contraction is measured before and 5 minutes after adding the drug. After washing out, the agonist is added again three times in order to see whether the contraction is restored and normalized. […] In this connection the ED50 -values are the minimal concentrations of the concerned drugs which reduce the amplitude of the contraction to at least 50% of its normal value.

[3] = test system: rats injected with compound 48/80; conditions: known serotonin antagonists; cited from earlier work

SMILES | ED50 [1] | Caudal Artery ED50 [2] | prevention of cyanosis of ears and extremities, of lesions in the glandular area of the stomach and of abnormal gastric distension [3]
Cc1cc(C)n2c(=O)c(CCN3CCC(C(=O)c4ccc(F)cc4)CC3)c(C)nc2c1 [6-CH3 8-CH3 CH2CH2 H C6 H4.4F] | 0.02 mg/kg | 0.16 ng/mL | 
Cc1cc(C)n2c(=O)c(CCN3CCC(c4c[nH]c5ccccc45)CC3)c(C)nc2c1 [6-CH3 8-CH3, 3-[2-[4-(1H-indol-3-yl)-1-piperidinyl]ethyl]-2,6,8-trimethyl-4H-pyrido[1,2-a]pyrimidin-4-one] | 0.63 mg/kg | 0.16 ng/mL | 
Cc1nc2cccc(C)n2c(=O)c1CCN1CCC(C(=O)c2ccc(F)cc2)CC1 [H 6-CH3 CH2CH2 H C6 H4 .4F] | 2.5 mg/kg | < 0.63 ng/mL | 
Cc1nc2cccc(C)n2c(=O)c1CCN1CCC(c2c[nH]c3ccccc23)CC1 [H 6-CH3, 3-[2-[4-(1H-indol-3-yl)-1-piperidinyl]ethyl]-2,6-dimethyl-4H-pyrido[1,2-a]pyrimidin-4-one] | 0.16 mg/kg | 0.08 ng/mL | 
Cc1nc2ccc(Br)cn2c(=O)c1CCN1CCC(C(=O)c2ccc(F)cc2)CC1 [H 7-Br CH2CH2 H C6 H4 .4F] | < 0.63 mg/kg | 0.31 ng/mL | 
Cc1nc2ccc(Br)cn2c(=O)c1CCN1CCC(c2c[nH]c3ccccc23)CC1 [H 7-Br, 7-bromo-3-[2-[4-(1H-indol-3-yl)-1-piperidinyl]ethyl]-2-methyl-4H-pyrido[1,2-a]pyrimidin-4-one] | 1.25 mg/kg | 0.31 ng/mL | 
Cc1ccc2nc(C)c(CCN3CCC(C(=O)c4ccc(F)cc4)CC3)c(=O)n2c1 [H 7-CH3 CH2CH2 H C6 H4.4F] | 0.02 mg/kg | 0.31 ng/mL | 
Cc1ccc2nc(C)c(CCN3CCC(c4c[nH]c5ccccc45)CC3)c(=O)n2c1 [H 7-CH3, 3-[2-[4-(1H-indol-3-yl)-1-piperidinyl]ethyl]-2,7-dimethyl-4H-pyrido-[1,2-a]pyrimidin-4-one] | 0.63 mg/kg | 0.31 ng/mL | 
Cc1nc2ccc(Cl)cn2c(=O)c1CCN1CCC(C(=O)c2ccc(F)cc2)CC1 [H 7-Cl CH2CH2 H C6 H4.4F] | 0.01 mg/kg | 1.25 ng/mL | 
Cc1nc2ccc(Cl)cn2c(=O)c1CCN1CCC(c2c[nH]c3ccccc23)CC1 [H 7-Cl, 7-chloro-3-[2-[4-(1H-indol-3-yl)-1-piperidinyl]ethyl]-2-methyl-4H-pyrido[1,2-a]pyrimidin-4-one] | 0.63 mg/kg | 0.63 ng/mL | 
Cc1ccn2c(=O)c(CCN3CCC(C(=O)c4ccc(F)cc4)CC3)c(C)nc2c1 [H 8-CH3 CH2CH2 H C6 H4 .4F] | 0.04 mg/kg | < 2.5 ng/mL | 
Cc1ccn2c(=O)c(CCN3CCC(c4c[nH]c5ccccc45)CC3)c(C)nc2c1 [H 8-CH3, 3-[2-[4-(1H-indol-3-yl)-1-piperidinyl]ethyl]-2,8-dimethyl-4H-pyrido[1,2-a]pyrimidin-4-one] | 0.04 mg/kg | 0.31 ng/mL | 
Cc1nc2ccccn2c(=O)c1CCN1CCC(CO)(C(=O)c2ccc(F)cc2)CC1.Cl.Cl.O [H H CH2CH2 CH2 OH C6 H4 .4F, 3-[2-[4-(4-fluorobenzoyl)-4-(hydroxymethyl)-1-piperidinyl]ethyl]-2-methyl-4H-pyrido[1,2-a]pyrimidin-4-one dihydrochloride monohydrate] | < 0.63 mg/kg |  | 
Cc1nc2ccccn2c(=O)c1CCN1CCC(C)(C(=O)c2ccc(F)cc2)CC1 [H H CH2CH2 CH3 C6 H 4 .4F] | 0.16 mg/kg | 0.63 ng/mL | 
Cc1nc2ccccn2c(=O)c1CCN1CCC(C(=O)c2cccs2)CC1 [H H CH2CH2 H 2-thienyl] |  | 1.3 ng/mL | 
Cc1nc2ccccn2c(=O)c1CCN1CCC(C(=O)c2ccc(F)cc2)CC1 [H H CH2CH2 H C6 H4 .4F, 3-[2-[4-(4-fluorobenzoyl)-1-piperidinyl]ethyl]-2-methyl-4H-pyrido[1,2-a]pyrimidin-4-one] | 0.016 mg/kg | 0.32 ng/mL | 
Cc1ccccc1C(=O)C1CCN(CCc2c(C)nc3ccccn3c2=O)CC1 [H H CH2CH2 H C6 H4.2CH3] |  | 1.25 ng/mL | 
Cc1nc2ccccn2c(=O)c1CCN1CCC(C(=O)c2ccccc2)CC1 [H H CH2CH2 H C6 H5, 3-[2-(4-benzoyl-1-piperidinyl)ethyl]-2-methyl-4H-pyrido[1,2-a]pyrimidin-4-one] | 0.63 mg/kg | 0.63 ng/mL | 
Cc1nc2ccccn2c(=O)c1CCN1CCC(O)(C(=O)c2ccc(F)cc2)CC1 [H H CH2CH2 OH C6 H4 .4F] | 2.5 mg/kg | 0.31 ng/mL | 
Cc1nc2ccccn2c(=O)c1CC(C)N1CCC(C(=O)c2ccc(F)cc2)CC1 (stereo not shown) [H H drawing 24 H C6 H4 .4F] | 2.5 mg/kg |  | 
Cc1nc2ccccn2c(=O)c1CCN1CCC(c2c[nH]c3ccccc23)CC1 [H H, 3-[2-[4-(1H-indol-3-yl)-1-piperidinyl]ethyl]-2-methyl-4H-pyrido[1,2-a]pyrimidin-4-one] | 0.08 mg/kg | 0.14 ng/mL | 
CN(C)CCCSc1ccccc1NC(=O)/C=C/c1ccccc1 [cinanserin] |  |  | prevent completely
CN1CCC(=C2c3ccccc3C=Cc3ccccc32)CC1 [cyproheptadine] |  |  | prevent completely
CN1C[C@H](CNC(=O)OCc2ccccc2)C[C@@H]2c3cccc4c3c(cn4C)C[C@H]21 [metergoline] |  |  | prevent completely
CC[C@@H](CO)NC(=O)[C@@H]1C=C2c3cccc4c3c(cn4C)C[C@H]2N(C)C1 [methysergide] |  |  | prevent completely
CN1CCN2c3ccccc3Cc3ccccc3C2C1 (stereo not shown) [mianserin] |  |  | prevent completely
NC(=O)C1(N2CCCCC2)CCN(CCCC(=O)c2ccc(F)cc2)CC1 [pipamperone] |  |  | prevent completely
CN1CCC(=C2c3ccccc3CCc3sccc32)CC1 [pizotifen] |  |  | prevent completely
O=C(CCCN1CCC2(CC1)C(=O)NCN2c1ccccc1)c1ccc(F)cc1 [spiperone] |  |  | prevent completely

Source: patent US4342870A, “Novel 3-(1-piperidinylalkyl)-4H-pyrido[1,2-a]pyrimidin-4-one derivatives” (Janssen Pharmaceutica N.V., priority 1980, dated 1982)
